Assay type in all cases: cell-based
In assay [1] the test system is Streptococcus pneumoniae 032UC1. As to the kind of experiment: Dilution method in liquid medium (MIC). To be noted: incubation 24 h at 37°C, read-out: concentrations minimales inhibitrices (C.M.I.). As to the method: (§1) Méthode des dilutions en milieu liquide
(§2) On a préparé une série de tubes dans lesquels on répartit une même quantité de milieu nutritif stérile. On distribue dans chaque tube des quantités croissantes du produit à étudier, puis chaque tube est ensemencé avec une souche bactérienne. Après incubation de vingt-quatre heures à l'étuve à 37°C, l'inhibition de la croissance est appréciée par transillumination de ce qui permet de déterminer les concentrations minimales inhibitrices (C.M.I.) exprimées en microgrammes/cm^3.

Assay [2] concerns Streptococcus mitis 02mitGR16I. Briefly: Dilution method in liquid medium (MIC). To be noted: incubation 24 h at 37°C, read-out: concentrations minimales inhibitrices (C.M.I.). As to the method:
as §1, §2

Assay [3] has as its system Streptococcus mitis 02mitCB1. As to the kind of experiment: Dilution method in liquid medium (MIC). To be noted: incubation 24 h at 37°C, read-out: concentrations minimales inhibitrices (C.M.I.). The method, then:
as §1, §2

The test system of assay [4] is Streptococcus faecalis groupe D 02D2UC1. As to the kind of experiment: Dilution method in liquid medium (MIC). The note with it: Enterococcus faecalis, incubation 24 h at 37°C, read-out: concentrations minimales inhibitrices (C.M.I.). As to the method:
as §1, §2

Assay [5] deals with Streptococcus agalactiae groupe B 02B1HT1. As to the kind of experiment: Dilution method in liquid medium (MIC). The note with it: incubation 24 h at 37°C, read-out: concentrations minimales inhibitrices (C.M.I.). As to the method: as §1, §2
Assay [6] deals with Streptococcus sp groupe G 02G0GR5. As to the kind of experiment: Dilution method in liquid medium (MIC). The note with it: incubation 24 h at 37°C, read-out: concentrations minimales inhibitrices (C.M.I.). The method, then: as §1, §2
Assay [7] deals with Streptococcus agalactiae groupe B 02B1SJ1. As to the kind of experiment: Dilution method in liquid medium (MIC). The note with it: incubation 24 h at 37°C, read-out: concentrations minimales inhibitrices (C.M.I.). As to the method: as §1, §2
Assay [8] relates to Streptococcus faecium groupe D 02D3HT1. Briefly: Dilution method in liquid medium (MIC). The note with it: Enterococcus faecium, incubation 24 h at 37°C, read-out: concentrations minimales inhibitrices (C.M.I.). As to the method:
as §1, §2

Assay [9] concerns Staphylococcus aureus 011UC4. Briefly: Dilution method in liquid medium (MIC). To be noted: incubation 24 h at 37°C, read-out: concentrations minimales inhibitrices (C.M.I.). The method, then:
as §1, §2

In assay [10] the test system is Staphylococcus aureus 011G025I. As to the kind of experiment: Dilution method in liquid medium (MIC). The note with it: incubation 24 h at 37°C, read-out: concentrations minimales inhibitrices (C.M.I.). The method, then: as §1, §2
The test system of assay [11] is Staphylococcus epidermidis 012GO11I. As to the kind of experiment: Dilution method in liquid medium (MIC). The note with it: incubation 24 h at 37°C, read-out: concentrations minimales inhibitrices (C.M.I.). The method, then: as §1, §2
Assay [12] deals with Streptococcus pyogenes groupe A 02A1UC1. Briefly: Dilution method in liquid medium (MIC). To be noted: incubation 24 h at 37°C, read-out: concentrations minimales inhibitrices (C.M.I.). The method, then: as §1, §2
Assay [13] concerns Haemophilus Influenzae 351HT3. Briefly: Antibacterial activity on gram-negative strains. The note with it: result in words. As to the method: as §2
Assay [14] deals with Haemophilus Influenzae 351GR6. Briefly: Antibacterial activity on gram-negative strains. To be noted: result in words. The method, then: as §2
Assay [15] deals with Haemophilus Influenzae 351CB12. As to the kind of experiment: Antibacterial activity on gram-negative strains. The note with it: result in words. The method, then: as §2
The subject of assay [16] is Haemophilus Influenzae 351CA1. Briefly: Antibacterial activity on gram-negative strains. The note with it: result in words. As to the method: as §2

In brackets after ≈: the same amount, converted by molar mass. Where only a bound is given, the exact number is not on record here.

`CC[C@H]1OC(=O)[C@H](C)C(=O)[C@H](C)[C@@H](O[C@@H]2O[C@H](C)C[C@H](N(C)C)[C@H]2O)[C@](C)(OC)C[C@@H](C)C(=O)[C@H](C)[C@H]2N(COCCn3cnc(-c4cccnc4)c3)C(=O)O[C@]12C` [Ex. 2]: the MIC in [1] was 0.02 µg/mL (≈ 0.0246 µM); in [2] it was ≤ 0.02 µg/mL; in [3] it was ≤ 0.02 µg/mL; in [4] it was ≤ 0.02 µg/mL; in [5], ≤ 0.02 µg/mL; in [6], ≤ 0.02 µg/mL. The MIC in assay [7] is 0.08 µg/mL (≈ 0.0983 µM); in assay [8] it was ≤ 0.02 µg/mL; in [9] it was 0.08 µg/mL (≈ 0.0983 µM); in [10], 0.08 µg/mL (≈ 0.0983 µM); in assay [11], 0.08 µg/mL (≈ 0.0983 µM); in assay [12] it was ≤ 0.02 µg/mL.

On to `CC[C@H]1OC(=O)[C@H](C)C(=O)[C@H](C)[C@@H](O[C@@H]2O[C@H](C)C[C@H](N(C)C)[C@H]2O)[C@](C)(OC)C[C@@H](C)C(=O)[C@H](C)[C@H]2N(COCCc3ccccc3)C(=O)O[C@]12C` [Ex. 3, 11,12-didéoxy-3-de[(2,6-didéoxy-3-C-méthyl-3-O-méthyl-alpha-L-ribo-hexopyranosyl)oxy]-6-O-méthyl-3-oxo-12,11-[oxycarbonyl[[(2-phényléthoxy)méthyl]imino]]-érythromycine], for which the MIC is ≤ 0.02 µg/mL in [1]; ≤ 0.02 µg/mL in [2]; ≤ 0.02 µg/mL in assay [3]; ≤ 0.04 µg/mL in [4]; ≤ 0.02 µg/mL in [5]; ≤ 0.02 µg/mL in [6]. The MIC in assay [7] is 0.04 µg/mL (≈ 0.0536 µM); in assay [8] it was ≤ 0.02 µg/mL; in assay [9], 0.04 µg/mL (≈ 0.0536 µM); in assay [10], 0.15 µg/mL (≈ 0.201 µM); in assay [11], 0.08 µg/mL (≈ 0.107 µM); in [12] it was ≤ 0.02 µg/mL.

Turning to `CC[C@H]1OC(=O)[C@H](C)C(=O)[C@H](C)[C@@H](O[C@@H]2O[C@H](C)C[C@H](N(C)C)[C@H]2O)[C@](C)(OC)C[C@@H](C)C(=O)[C@H](C)[C@H]2N(COCCOC)C(=O)O[C@]12C` [exemple 1, 11,12-didéoxy-3-de[(2,6-didéoxy-3-C-méthyl-3-O-méthyl-alpha-L-ribo-hexopyranosyl)oxy]-6-O-méthyl-3-oxo-12,11-[oxycarbonyl[[(2-méthoxyéthoxy)méthyl]imino]]-érythromycine], the “activité sur les souches bactériennes à gram⊖” value in assay [13], in [14], in assay [15] and in [16] was “activité intéressante” in each case.
